# Laboratory results from PMC13385394, “Cryo-EM Structure of the TRPC1/5 Heteromer Enables Design of Antidepressant and Anxiolytic Drug with Reduced Side Effects” (Nature Communications, 2026).
# Tests used:
# mCPP-induced anxiety = assay: Elevated plus maze (EPM) test, mCPP-induced anxiety model; settings: mCPP mice; single dose; JD03-02 3, 10, 30 mg/kg i.g.
# hTRPC5 = target: T1, hTRPC5 (Homo sapiens, UniProt Q9UL62); assay: Calcium flux assay (Calcium 5 kit, EA 100 nM), hTRPC5 in HEK293T cells; format: cell-based; settings: calcium flux screening, 10 μM
# T1 construct: Full-length, non-tagged hTRPC1 and hTRPC5 constructs are used for calcium flux assays; expressed in transfected cells; host or cells: HEK293T
# T1 sequence (Q9UL62 1-973): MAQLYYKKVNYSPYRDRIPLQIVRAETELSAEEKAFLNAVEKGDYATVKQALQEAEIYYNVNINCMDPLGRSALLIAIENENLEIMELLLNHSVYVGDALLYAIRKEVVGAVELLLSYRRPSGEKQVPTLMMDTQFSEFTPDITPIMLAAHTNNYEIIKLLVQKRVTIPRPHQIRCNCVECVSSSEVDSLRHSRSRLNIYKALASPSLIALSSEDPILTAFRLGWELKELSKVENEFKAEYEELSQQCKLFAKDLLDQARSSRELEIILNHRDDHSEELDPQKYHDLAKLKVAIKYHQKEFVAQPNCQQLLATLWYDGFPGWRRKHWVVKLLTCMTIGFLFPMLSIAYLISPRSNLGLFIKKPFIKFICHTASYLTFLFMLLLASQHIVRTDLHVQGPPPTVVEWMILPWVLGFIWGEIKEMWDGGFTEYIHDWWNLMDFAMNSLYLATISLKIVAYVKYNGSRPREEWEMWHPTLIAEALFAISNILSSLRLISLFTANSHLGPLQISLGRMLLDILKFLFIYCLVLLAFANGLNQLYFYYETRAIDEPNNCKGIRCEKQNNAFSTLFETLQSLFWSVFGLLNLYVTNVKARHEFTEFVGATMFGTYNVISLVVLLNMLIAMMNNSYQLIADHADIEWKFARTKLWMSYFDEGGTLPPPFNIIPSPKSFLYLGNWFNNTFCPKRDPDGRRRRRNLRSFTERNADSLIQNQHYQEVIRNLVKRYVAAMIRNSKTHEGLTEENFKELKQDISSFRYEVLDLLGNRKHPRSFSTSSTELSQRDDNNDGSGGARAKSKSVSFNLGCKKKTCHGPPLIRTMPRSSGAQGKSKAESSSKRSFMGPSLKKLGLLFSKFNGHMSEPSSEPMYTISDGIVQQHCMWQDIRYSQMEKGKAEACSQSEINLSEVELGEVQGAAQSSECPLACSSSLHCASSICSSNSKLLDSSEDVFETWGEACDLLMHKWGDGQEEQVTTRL
# Method: Five minutes before measurement, molecules are added to each well at a final concentration of 10 µM under light-sensitive conditions.
# TRPC1/5 = target: T2, TRPC1/5 (Homo sapiens, UniProt P48995+Q9UL62); assay: Calcium flux assay (Calcium 5 kit, EA 100 nM), hTRPC1 + hTRPC5 in HEK293T cells; format: cell-based; settings: calcium flux screening, 10 μM
# T2 construct: Full-length, non-tagged hTRPC1 and hTRPC5 constructs are used for calcium flux assays; expressed in transfected cells; host or cells: HEK293T
# Method: Full-length, non-tagged hTRPC1 and hTRPC5 constructs are used for calcium flux assays. hTRPC5 is transfected alone or co-transfected with hTRPC1 into HEK293T cells (70–80% confluency) using PEI as the transfection reagent.
# The culture medium is removed, and 100 µL of loading buffer (Calcium 5 Assay Kit) is added to each well, followed by a 1-h incubation at 37 °C in 5% CO2. Five minutes before measurement, molecules are added to each well at a final concentration of 10 µM under light-sensitive conditions.
# [1] = system: TRPC1 or TRPC5 mutations within the TRPC1/5 heteromer; assay: Whole-cell patch-clamp, inhibition of TRPC1/5 heteromers carrying TRPC1 or TRPC5 mutations (e.g. TRPC1 F595A); format: cell-based; settings: TRPC1 F595A/C5 vs WT TRPC1/5
# Source text: The full-length hTRPC5 or truncated mTRPC5, and the full-length hTRPC1 constructs was respectively co-transfected in a plasmid ration 1:3 (w/w) into HEK293T cells (from the ATCC). As previously described, a mCherry was inserted into TRPC5 constructs and a GFP was inserted at the C terminus of TRPC1. Therefore, Cells with red and green fluorescence were selected for whole-cell patch recordings (HEKA EPC10 amplifier, […] software (https://www.heka.com/downloads/downloads_main.html#down_patchmaster)). A 1-s ramp protocol from −100 to +100 mV was applied at a frequency of 0.2 Hz. Signals were sampled at 50 kHz and filtered at 2.9 kHz. The pipette solution contained 130 mM CsCl, 1 mM MgCl2, 5.7 mM CaCl2, 10 mM EGTA, and 10 mM Hepes (calculated free Ca^2+, 200 nM), and the pH was titrated to 7.2 using CsOH[40]. The standard bath solution contained 140 mM NaCl, 5 mM KCl, 1 mM MgCl2, 2 mM CaCl2, 10 mM Hepes, and 10 mM D-glucose, and the pH was adjusted to 7.4 with NaOH (1 M). The recording chamber (150 μL) was perfused at a rate of ~2 mL/min. All recordings were performed at room temperature. In this experiment, TRPC5 homomers or TRPC1/5 heteromers were activated using the TRPC1/4/5 agonist Englerin A (EA).
# Error bars represent the standard error of the mean (SEM, n = 6 independent
# Error bars represent the standard error of the
# 110 mean (SEM, n = 5 independent cells).
# [2] = system: CUMS-induced depressive-like behaviors; assay: Forced swim test (FST) in CUMS model; format: in vivo, mouse; settings: CUMS mice; 14 days once-daily oral; vs vehicle
# Method: The stressors included food and water deprivation, foot shock, wet bedding, cage tilting, restraint, shaking, and olfactory stimulation. These seven stressors were randomly applied each week to ensure unpredictability. The stress induction was maintained continuously for 28 days. Following model establishment, the tail suspension test (TST) was performed to confirm the successful induction of depressive-like behaviors. Mice that met the criteria were randomly assigned to experimental groups. Chronic Treatment: Mice were treated daily for 14 consecutive days. The SPT was conducted on day 11, and the forced swimming test (FST) was performed on day 14.
# TRPC5 homomers = target: T3, TRPC5 homomers (Homo sapiens, UniProt Q9UL62); assay: Whole-cell patch-clamp, inhibition of EA-activated TRPC5 homomers; format: cell-based
# T3 construct: full length hTRPC5 (TRPC5 wild type (WT)); expressed in transfected cells; host or cells: HEK293T
# T3 sequence (Q9UL62 1-973): T1 sequence (Q9UL62 1-973)
# T2 sequence (P48995 whole entry, one chain of several): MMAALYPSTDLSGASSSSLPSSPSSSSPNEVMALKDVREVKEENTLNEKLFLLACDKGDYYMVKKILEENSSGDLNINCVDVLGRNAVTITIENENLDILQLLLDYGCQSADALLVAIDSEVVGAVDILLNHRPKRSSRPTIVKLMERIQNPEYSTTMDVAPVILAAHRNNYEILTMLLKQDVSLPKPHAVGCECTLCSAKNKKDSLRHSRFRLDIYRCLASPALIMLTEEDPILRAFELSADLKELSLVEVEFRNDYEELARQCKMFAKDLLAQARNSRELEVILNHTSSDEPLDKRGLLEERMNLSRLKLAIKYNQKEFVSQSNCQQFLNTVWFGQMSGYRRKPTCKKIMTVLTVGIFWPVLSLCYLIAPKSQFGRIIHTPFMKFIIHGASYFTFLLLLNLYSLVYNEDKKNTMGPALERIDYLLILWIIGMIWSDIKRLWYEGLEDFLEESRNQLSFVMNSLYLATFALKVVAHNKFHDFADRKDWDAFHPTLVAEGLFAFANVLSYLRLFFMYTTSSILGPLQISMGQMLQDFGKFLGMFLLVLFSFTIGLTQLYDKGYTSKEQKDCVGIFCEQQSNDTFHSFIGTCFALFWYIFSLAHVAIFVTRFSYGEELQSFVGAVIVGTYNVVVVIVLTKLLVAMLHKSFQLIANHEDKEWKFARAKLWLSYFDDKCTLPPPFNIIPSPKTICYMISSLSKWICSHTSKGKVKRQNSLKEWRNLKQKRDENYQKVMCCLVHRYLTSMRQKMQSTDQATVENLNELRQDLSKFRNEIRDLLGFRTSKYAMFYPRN
compound,measurement,setting,value
CN(C)CCCCn1c(=O)c2c(nc(Oc3cccc(Cl)c3)n2Cc2ccc(Cl)cc2)n(C)c1=O [H08],EPM open arm entries and time in open arms,mCPP-induced anxiety,increasing numbers of open arm entries and time spent in open arms
same,inhibitory activity toward TRPC5 homomers (in words),hTRPC5,minimal effect
same,inhibition of TRPC1/5 heteromers (in words),TRPC1/5,strong inhibition
same,increase in IC50 on alanine substitution of F595 in TRPC1,[1],~ 100 fold
same,"immobility (FST), repeated dosing",[2],reduced immobility
same,concentration at which inhibition of TRPC5 homomers appears,TRPC5 homomers,> 5 µM
same,"HillSlope, TRPC5",TRPC5 homomers; whole-cell patch-clamp,1.990
same,IC50,TRPC5 homomers; whole-cell patch-clamp,8.5 µM
same,"HillSlope, TRPC5","TRPC5 homomers; whole-cell patch-clamp, listed as JD03-02",> 1
